{"source": "patent US20170234881A1", "about": "“METHODS OF DIAGNOSING AND TREATING CANCER” (INSERM ( INSTITUT NATIONAL DE LA SANTÉ ET DE LA RECHERCHE …, priority 2014, published 2017)", "key": {"[1]": {"test_system": "shHSD2 MCF7 cells", "experiment": "Invasiveness of shHSD2 MCF7 cells (matrigel-coated filters)", "assay_type": "cell-based, human", "conditions": "OCDO 5 μM for 72 h", "description": "FIG. 7. Knock-down of 11βHSD2 decreases cell proliferation, invasion and survival in MCF7 cells as well as tumor growth and OCDO reverses these effects. shC or shHSD2 MCF7 cells were analyzed as followed: (A) The proliferation of sh-C or shHSD2 cells treated or not with OCDO 5 μM 24 h was measured using quantification of DNA BrDU incorporation as described in FIG. 2A. (B) The proliferation of sh-C or shHSD2 cells treated or not with increasing concentration of cortisone for 24 h was measured as in (A). (C) The invasiveness of sh-C or shHSD2 cells treated or not with OCDO 5 μM for 72 h was assayed using matrigel-coated filters. (D) the formation of colony by sh-C or shHSD2 cells treated or not with OCDO 1 μM was quantified as described in FIG. 6F. […] Animals were monitored for tumor growth twice a week. […] (F) Mean (±s.e.m) of Ki67 positive cell number determined from IHC staining of shC or shHSD2 MCF7 tumor sections from (E), n=8, *P<0.05 (Student's t-test) using HistoQuant, Pannoramic Viewer (3DHistech).\n(§1) Invasion assays were carried out using Bio-Coat migration chambers (BD Falcon) with 8 μm filters previously coated with matrigel. […] The entire membranes were mounted on glass slides, and were counted under a microscope. […]"}, "[2]": {"test_system": "MCF7 cells", "experiment": "Cell invasion assay (matrigel-coated filters), MCF7", "assay_type": "cell-based, human", "conditions": "concentration-dependent, level reached", "description": "(§2) FIG. 2. OCDO is a tumor promoter in vitro and in vivo and its inhibition contributes to the anti-tumor effects of Tam and DDA. (A, B) Histograms representing the effect of OCDO or 17β-estrogen (E2) on MCF7 (A) and TS/A (B) cell proliferation after 24 h treatment using a colorimetric immunoassay measuring BrDU incorporation in DNA (C, D) Histogram representing the effect of OCDO on MCF7 (C) and TS/A (D) cell invasion. Data are the mean of three separate experiments (±s.e.m), *P<0.05, **P<0.01, ***P<0.001 (Student's t-test). (E, F) Mice were implanted s.c. with MCF7 (E) or TS/A (F) cells and animals (8 per group) were treated s.c. every day starting on the day of implantation with either the solvent vehicle or OCDO (16 μg/kg for MCF7 or 50 μg/kg for TS/A). Animals were monitored for tumour growth twice a week. The data are representative of three independent experiments. The mean tumor volume±s.e.m is shown, *P<0.05, **P<0.01, ***P<0.001 (analysis of variance (ANOVA), Dunnett's post test). (G) Mean (±s.e.m) of Ki67 positive cell number determined from IHC staining of MCF7 tumor sections from (E), n=8, *P<0.05 (Student's t-test) using HistoQuant, Pannoramic Viewer (3DHistech). […]\nas §1"}, "[3]": {"test_system": "E0771 cells", "experiment": "Growth of E0771 tumors implanted s.c. into mice", "assay_type": "in vivo", "conditions": "mouse E0771 tumors, OCDO 50 μg/kg s.c.", "description": "as §2, with “The data are representative of three independent experiments. The mean tumor volume±s.e.m is shown, *P<0.05, **P<0.01, ***P<0.001 (analysis of variance (ANOVA), Dunnett's post test).” left out\n(§3) Exponentially growing MCF7, ShMCF7, E0771, MDA-MB231, MDA-MB468 and TS/A cells were collected, washed twice in PBS and resuspended in PBS. […] Animals were examined daily, and body weights were measured twice per week. In all the experiments, the tumor volume was determined by direct measurement with a caliper and was calculated using the formula (width^2×length)/2. […]"}, "[4]": {"test_system": "MDA-MB231 cells", "experiment": "Growth of MDA-MB231 tumors implanted s.c. into mice", "assay_type": "in vivo", "conditions": "human MDA-MB231 tumors, OCDO 16 μg/kg s.c.", "description": "as §2, with “The data are representative of three independent experiments. The mean tumor volume±s.e.m is shown, *P<0.05, **P<0.01, ***P<0.001 (analysis of variance (ANOVA), Dunnett's post test).” left out\nas §3"}, "[5]": {"test_system": "MDA-MB468 cells", "experiment": "Growth of MDA-MB468 tumors implanted s.c. into mice", "assay_type": "in vivo", "conditions": "human MDA-MB468 tumors, OCDO 16 μg/kg s.c.", "description": "as §2, with “The data are representative of three independent experiments. The mean tumor volume±s.e.m is shown, *P<0.05, **P<0.01, ***P<0.001 (analysis of variance (ANOVA), Dunnett's post test).” left out\nas §3"}}}
{"compound": "CC(C)CCC[C@@H](C)[C@H]1CC[C@H]2[C@@H]3CC(=O)[C@@]4(O)C[C@@H](O)CC[C@]4(C)[C@H]3CC[C@]12C", "note": "[OCDO, 6-oxo-cholestan-3β,5α-diol]", "values": [{"measurement": "effect on the inhibition of cell invasion mediated by 11βHSD2 knock-down", "setting": "[1]", "value": "reversed the inhibition of cell invasion"}, {"measurement": "invasiveness compared with the control", "setting": "[2]", "value": 6, "unit": "fold"}, {"measurement": "tumor growth", "setting": "[3]", "value": "stimulates the growth"}, {"measurement": "tumor growth", "setting": "[4]", "value": "stimulates the growth"}, {"measurement": "tumor growth", "setting": "[5]", "value": "stimulates the growth"}]}
